# Measured values from patent US9216999B2, “Substituted pyrrolo[2,3-h][1,6]naphthyridines and compositions thereof as JAK inhibitors” (priority 2011, dated 2015).
# Like-named read-outs stand apart in the source and are kept apart here.
# Experiments:
# Tyk2 = Tyk2 (Homo sapiens (Human), UniProt P29597); test: Enzyme assay (Assay Example^a 1), Tyk2; assay type: biochemical; settings: ATP 100 μM; Table^a 154
# JAK3 = JAK3 (Homo sapiens (Human), UniProt P52333); test: Enzyme assay (Assay Example^a 1), JAK3; assay type: biochemical
# JAK3, sequence (P52333 whole entry): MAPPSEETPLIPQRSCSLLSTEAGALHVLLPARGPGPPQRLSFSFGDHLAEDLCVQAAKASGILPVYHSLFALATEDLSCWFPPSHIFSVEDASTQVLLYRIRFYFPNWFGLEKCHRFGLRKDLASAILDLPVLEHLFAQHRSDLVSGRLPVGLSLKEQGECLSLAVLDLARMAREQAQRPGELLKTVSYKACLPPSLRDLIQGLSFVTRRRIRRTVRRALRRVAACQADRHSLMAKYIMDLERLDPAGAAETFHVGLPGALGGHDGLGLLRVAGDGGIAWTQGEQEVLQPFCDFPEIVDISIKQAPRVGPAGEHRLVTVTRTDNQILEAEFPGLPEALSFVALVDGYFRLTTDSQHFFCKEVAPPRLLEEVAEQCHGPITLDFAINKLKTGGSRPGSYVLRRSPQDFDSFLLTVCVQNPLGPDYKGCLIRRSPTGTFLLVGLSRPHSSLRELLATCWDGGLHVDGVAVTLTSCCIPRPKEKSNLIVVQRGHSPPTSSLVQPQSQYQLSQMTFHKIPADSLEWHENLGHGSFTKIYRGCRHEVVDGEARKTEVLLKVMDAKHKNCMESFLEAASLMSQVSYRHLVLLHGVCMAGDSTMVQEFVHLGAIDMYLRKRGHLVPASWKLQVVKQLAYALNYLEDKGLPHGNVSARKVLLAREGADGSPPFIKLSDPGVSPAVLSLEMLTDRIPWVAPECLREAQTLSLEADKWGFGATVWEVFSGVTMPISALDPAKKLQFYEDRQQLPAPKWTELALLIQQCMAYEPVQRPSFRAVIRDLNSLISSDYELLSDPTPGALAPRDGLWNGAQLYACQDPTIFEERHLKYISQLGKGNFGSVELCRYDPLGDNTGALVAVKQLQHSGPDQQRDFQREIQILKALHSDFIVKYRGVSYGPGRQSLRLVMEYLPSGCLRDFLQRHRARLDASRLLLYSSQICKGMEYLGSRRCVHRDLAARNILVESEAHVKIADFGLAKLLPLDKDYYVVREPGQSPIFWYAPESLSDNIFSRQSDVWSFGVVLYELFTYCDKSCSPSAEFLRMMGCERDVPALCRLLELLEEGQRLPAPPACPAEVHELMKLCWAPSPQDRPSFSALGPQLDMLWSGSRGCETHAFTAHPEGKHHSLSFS
# Tyk2, sequence (P29597 whole entry): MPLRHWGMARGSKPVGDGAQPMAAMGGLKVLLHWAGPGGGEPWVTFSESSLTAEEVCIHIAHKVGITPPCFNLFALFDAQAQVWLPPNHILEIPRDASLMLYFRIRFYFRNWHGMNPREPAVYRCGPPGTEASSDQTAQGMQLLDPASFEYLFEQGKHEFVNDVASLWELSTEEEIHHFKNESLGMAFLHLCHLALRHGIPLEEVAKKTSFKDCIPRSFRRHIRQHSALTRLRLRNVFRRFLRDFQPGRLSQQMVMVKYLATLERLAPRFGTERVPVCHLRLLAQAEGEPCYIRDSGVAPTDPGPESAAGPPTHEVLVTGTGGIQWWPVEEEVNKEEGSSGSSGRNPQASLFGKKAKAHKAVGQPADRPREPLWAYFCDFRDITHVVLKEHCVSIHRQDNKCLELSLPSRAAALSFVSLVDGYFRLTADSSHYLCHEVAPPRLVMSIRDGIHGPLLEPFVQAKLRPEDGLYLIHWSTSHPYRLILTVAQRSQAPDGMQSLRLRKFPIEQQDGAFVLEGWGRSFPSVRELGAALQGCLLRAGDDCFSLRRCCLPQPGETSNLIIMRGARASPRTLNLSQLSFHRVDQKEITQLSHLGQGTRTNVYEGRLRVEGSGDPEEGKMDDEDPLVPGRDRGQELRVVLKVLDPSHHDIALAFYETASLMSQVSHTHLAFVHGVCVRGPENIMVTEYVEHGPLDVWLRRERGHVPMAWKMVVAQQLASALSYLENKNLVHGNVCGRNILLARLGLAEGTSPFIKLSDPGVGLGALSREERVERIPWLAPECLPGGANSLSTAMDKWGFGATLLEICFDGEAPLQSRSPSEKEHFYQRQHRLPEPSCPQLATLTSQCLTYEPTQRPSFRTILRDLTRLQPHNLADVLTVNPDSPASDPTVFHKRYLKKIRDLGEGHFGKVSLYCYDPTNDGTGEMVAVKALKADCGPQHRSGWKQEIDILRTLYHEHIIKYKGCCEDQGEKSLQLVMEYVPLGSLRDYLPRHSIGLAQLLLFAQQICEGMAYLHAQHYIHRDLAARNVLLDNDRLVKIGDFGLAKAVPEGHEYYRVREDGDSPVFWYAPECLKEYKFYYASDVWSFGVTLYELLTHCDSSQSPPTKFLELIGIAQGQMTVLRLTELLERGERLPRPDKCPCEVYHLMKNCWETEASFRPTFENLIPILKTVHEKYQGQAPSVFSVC
Compound,IC50 (JAK3) [µM],"IC50 (JAK3; ATP 100 μM, Table^a 154) [µM]",further results
"OC(CN[C@H]1CC[C@H](c2nnn3cnc4[nH]ccc4c23)CC1)c1ccccc1 (mixture of isomers) [202b, 2-{[trans-4-(7H-pyrrolo[3,2-e][1,2,3]triazolo[1,5-c]pyrimidin-1-yl)cyclohexyl]amino}-1-phenylethanol]",–,–,IC50 (Tyk2): 0.26 µM
CC(C)(C)OC(=O)N1CCCC(c2nnn3cnc4[nH]ccc4c23)C1 (racemic) [compound 13],–,–,IC50 (Tyk2): > 1 µM
c1cncc(CN2CCCC(c3nnn4cnc5[nH]ccc5c34)C2)c1 (racemic) [compound 18],–,–,IC50 (Tyk2): > 1 µM
N#Cc1ccc(N[C@H]2CC[C@@H](c3nnn4cnc5[nH]ccc5c34)CC2)cc1 [134a],1,–,–
N#Cc1ccc(N[C@H]2CC[C@H](c3nnn4cnc5[nH]ccc5c34)CC2)cc1 [134b],0.66,–,–
FC(F)(F)CN1CCC(c2nnn3cnc4[nH]ccc4c23)CC1 [compound 25],0.44,–,–
O=C(Nc1nncs1)N1CCC(c2nnn3cnc4[nH]ccc4c23)CC1 [compound 30],–,0.48,–
Cc1cc(NC(=O)N2CCC(c3nnn4cnc5[nH]ccc5c34)CC2)sn1 [compound 31],–,> 1,–
N#Cc1cccc(CN2CCC(c3nnn4cnc5[nH]ccc5c34)CC2)c1 [compound 35],–,0.26,–
FC(F)(F)c1cccc(CN2CCC(c3nnn4cnc5[nH]ccc5c34)CC2)c1 [compound 39],–,0.53,–
FC(F)(F)c1ccc(CN2CCC(c3nnn4cnc5[nH]ccc5c34)CC2)cn1 [compound 52],0.041,–,–
Clc1ccc(CN2CCC(c3nnn4cnc5[nH]ccc5c34)CC2)cc1 [compound 54],0.071,–,–
CC(=O)SC[C@H]1CC[C@H](c2nnn3cnc4[nH]ccc4c23)CC1 [compound 71],0.055,–,–
CC(=O)OC[C@H]1CC[C@H](c2nnn3cnc4[nH]ccc4c23)CC1 [compound 72],–,0.048,–
ClC[C@H]1CC[C@H](c2nnn3cnc4[nH]ccc4c23)CC1 [compound 75],–,0.032,–
O[C@H]1CC[C@H](c2nnn3cnc4[nH]ccc4c23)CC1 [compound 81],0.64,–,–

Compound,IC50 (JAK3) [µM],"IC50 (JAK3; ATP 100 μM, Table^a 154) [µM]",further results
O[C@H]1CC[C@@H](c2nnn3cnc4[nH]ccc4c23)CC1 [compound 83],0.28,–,–
O=C(OCc1ccccc1)N1CCC(c2[nH]c(=S)n3cnc4[nH]ccc4c23)CC1 [compound 85],–,> 1,–
c1cc2c(ncn3nnc([C@H]4CC[C@H](CN5CCOCC5)CC4)c23)[nH]1 [compound 91],–,0.64,–
N#Cc1ccc(NC[C@H]2CC[C@H](c3nnn4cnc5[nH]ccc5c34)CC2)cc1 [compound 92],–,> 1,–
N#Cc1ccc(CNC[C@H]2CC[C@H](c3nnn4cnc5[nH]ccc5c34)CC2)cc1 [compound 93],–,0.31,–
Cc1cc(C#N)ccc1NC[C@H]1CC[C@H](c2nnn3cnc4[nH]ccc4c23)CC1 [compound 103],> 1,–,–
N#Cc1ccc(NC2CCC(c3nnn4cnc5[nH]ccc5c34)CC2)cc1 (centres unmarked) [compound 121],0.46,–,–
c1cc2c(ncn3nnc(C4CCC(N5CCOCC5)CC4)c23)[nH]1 (centres unmarked) [compound 124],–,> 1,–
c1cc2c(ncn3nnc(C4CCC(NCCN5CCOCC5)CC4)c23)[nH]1 (centres unmarked) [compound 126],–,> 1,–
Fc1ccccc1CN1CCC(c2nnn3cnc4[nH]ccc4c23)CC1 [compound 142],–,0.36,–
c1coc(CN2CCC(c3nnn4cnc5[nH]ccc5c34)CC2)c1 [compound 146],–,0.31,–
c1cc(CN2CCC(c3nnn4cnc5[nH]ccc5c34)CC2)[nH]n1 [compound 151],–,0.63,–
c1cc2c(ncn3nnc(C4CCN(Cc5csnn5)CC4)c23)[nH]1 [compound 152],–,0.032,–
Brc1ncc(CN2CCC(c3nnn4cnc5[nH]ccc5c34)CC2)s1 [compound 153],–,0.015,–
Fc1ccc(CN2CCC(c3nnn4cnc5[nH]ccc5c34)CC2)cc1C(F)(F)F [compound 154],–,0.62,–
"c1ccc2sc(CN3CCC(c4nnn5cnc6[nH]ccc6c45)CC3)nc2c1 [compound 232, 2-{[4-(7H-pyrrolo[3,2-e][1,2,3]triazolo[1,5-c]pyrimidin-1-yl)piperidin-1-yl]methyl}benzo[d]thiazole]",–,–,IC50 (JAK3; ATP 100 μM): > 1 µM
